Measured values from US4316955A, “Enzymatic deesterification of cephalosporin methyl esters” (Eli Lilly and Company, priority 1980, dated 1982).

Key:
[1] = test system: A49492 (Streptomyces capillispira); assay: Antibiotic disk sensitivity test of A49492; further: key: +: a plus indicates that a zone of inhibition was formed; -: a minus sign indicates that there was no inhibition zone; type: cell-based; conditions: ISP No. 2 agar seeded with 2% vegetative inoculum; amount per disk: Erythromycin 15 μg, Keflin 30 μg, Lincomycin 2 μg, Nystatin 100 U, Polymixin B 300 U, Streptomycin 10 μg, Tetracycline 30 μg, Vancomycin 5 μg
Method: Sodium chloride and sucrose tolerance were measured using ISP No. 2 agar. Antibiotic sensitivity was determined with sensitivity discs placed onto the surface of ISP No. 2 agar plates seeded with 2% vegetative inoculum.
In the table below, the column headed "Amount" indicates the amount of the antibiotic deposited on each disk.

[2] = test system: enzyme produced by Streptomyces capillispira; assay: Rate of enzymatic deesterification of cephalosporin methyl esters (titrimetric / spot-plate); type: biochemical
Method: Another detection method, called the spot plate method, was carried out by pipetting a carefully measured amount, usually 10 μl., of the mixture to be analyzed onto a filter paper sheet which had small zones outlined by lacquer so that liquids placed on the zones were isolated from each other. If the substrate compound was a nucleus ester, so that acylation was necessary, each zone was also spotted with 10 μl. of 2% sodium bicarbonate solution, and 20 μl. of 2.5% phenoxyacetyl chloride in petroleum ether. The spots were air-dried, and the paper sheets were overlaid on the agar surface of an assay plate which had been seeded with a spore suspension of B. subtilis. The sheets were left on the agar plates for about 45 minutes, and were then removed and the agar plates were incubated at 25° overnight. The sizes of the zones of inhibition were then measured, and the amount of cephalosporin acid in the sample was determined by comparison with the sizes of the zones produced by known amounts of the cephalosporin acid which was the product of the deesterification.
The above biological analytical methods are useful both for unpurified fermentation mixtures, and for purified enzyme preparations. Purified preparations are readily analyzed by titrimetric methods which determine the amount of acid produced by measuring the amounts of base needed to maintain constant pH during the reaction. Thus, the deesterification reaction is easily monitored with an automatic titrator by adding the enzyme preparation to an appropriate substrate solution and following the course of deesterification by the amount of base added to the sample by the automatic titrator.
The activity of the enzyme preparations in the following examples is described as a rate, usually measured in terms of (moles of substrate deesterified)/(mg. of protein or cells)(minute). In some instances, the activity of the enzyme was described in other ways, and such instances are explained in the pertinent examples.
The substrate against which enzyme activity was measured was methyl 7-amino-3-methyl-3-cephem-4-carboxylate unless otherwise stated.
In this experiment, the enzyme preparation of Example 16 was used to deesterify methyl cephalexin, and the rate of hydrolysis was measured by pH-stat titration. Reaction mixtures were prepared as shown in Example 16, except that 1 ml. of the enzyme preparation and 2 ml. of substrate solution were used, so that the final reaction mixture contained 2.5 mg./ml. of protein.
A purified enzyme preparation, prepared substantially as described in Example 15 above, and containing 0.66 mg./ml. of protein was used to deesterify methyl 7-amino(phenyl)acetamido-3-chloro-3-cephem-4-carboxylate(methyl cefaclor). […]

[3] = test system: enzyme produced by Streptomyces capillispira; assay: Deesterification shown by paper chromatography and bioautography; type: biochemical; conditions: 3-day culture, 30°, 16-20 hours; chromatogram acylated with phenoxyacetyl chloride; plate seeded with B. subtilis
Method: The usual method made use of filter paper chromatography, with 4/1 acetonitrile/water as the solvent.
If the substrate ester was a cephalosporin nucleus ester, having only an amino group at the 7-position, then the amount of acid could not be measured directly, because the nucleus acid is not active against the test organism.
The inoculated tube was shaken at 30° for 3 days, and then 4 ml. of the culture was transferred to a 50-ml. flask. To the flask was added 1 ml. of a filter-sterilized substrate solution containing 5 mg./ml. of methyl 7-amino-3-methyl-3-cephem-4-carboxylate at pH 7.0.
The flask was then incubated with shaking at 30° for 16-20 hours to allow the enzyme to deesterify the substrate compound.
The supernatant from the centrifugation was evaluated by paper chromatography as described above, using 4/1 acetonitrile/water as the solvent.
A substrate solution containing about 2 mg./ml. of methyl 7-amino(phenyl)acetamido-3-methyl-3-cephem-4-carboxylate (methyl cephalexin) was prepared in water, at pH 7.2. […] The mixture was shaken at 30° for 4 hours, and was then analyzed by paper chromatography, overlaying the chromatograms on nutrient agar plates seeded with Sarcina lutea.

Row | Compound | Result (zone of inhibition, disk sensitivity) [1] | other results
1 | CCC[C@@H]1C[C@@H](C(=O)N[C@@H]([C@H]2O[C@H](SC)[C@H](O)[C@@H](O)[C@H]2O)[C@@H](C)O)N(C)C1 [Lincomycin] | - | 
2 | CN(C)C1C(=O)C(C(N)=O)=C(O)C2(O)C(=O)C3=C(O)c4c(O)cccc4C(C)(O)C3CC12 (stereo not shown) [Tetracycline] | + | 
3 | COC(=O)C1=C(C)CS[C@@H]2C(N)C(=O)N12 (stereo partly shown) [methyl 7-amino-3-methyl-3-cephem-4-carboxylate] |  | Km value for the enzyme [2]: about 2.3 mg./ml.; lowest reaction rate ([2]; 15°, pH 8.0, Sephacryl-purified enzyme, automatic titrator, corrected for non-enzymatic hydrolysis): 1e-05 mol/min (liter); highest reaction rate ([2]; 30°, pH 8.0, Sephacryl-purified enzyme, automatic titrator, corrected for non-enzymatic hydrolysis): 1.9×10^-5 moles of ester hydrolyzed/(minute) (liter of reaction mixture); activity of cell sonicate supernatant ([2]; supernatant containing 14.4 mg./ml. of protein, Example 15): 2.2×10^-5 moles of ester hydrolyzed/(minute) (liter); deesterification in culture, zone of inhibition after acylation [3]: zone of inhibition
4 | C[C@@H]1[C@H](O)[C@@H](C)/C=C/C=C/CC/C=C/C=C/C=C/C=C/C(O[C@H]2O[C@H](C)[C@@H](O)[C@H](N)[C@@H]2O)CC2O[C@](O)(CC(O)C(O)CCC(O)CC(O)CC(O)CC(=O)O[C@H]1C)CC(O)C2C(=O)O (stereo partly shown) [Nystatin] | - | 
5 | Polymixin B | - | 
6 | [H]/N=C(/N)N[C@H]1[C@H](O)[C@@H](O)[C@H](O[C@@H]2O[C@@H](C)[C@](O)(C=O)[C@H]2O[C@@H]2O[C@@H](CO)[C@H](O)[C@@H](O)[C@@H]2NC)[C@@H](N/C(N)=N\[H])[C@@H]1O [Streptomycin] | + | 
7 | CC[C@H]1OC(=O)[C@H](C)[C@@H](O[C@H]2C[C@@](C)(OC)[C@@H](O)[C@H](C)O2)[C@H](C)[C@@H](O[C@@H]2O[C@H](C)C[C@H](N(C)C)[C@H]2O)[C@](C)(O)C[C@@H](C)C(=O)[C@H](C)[C@@H](O)[C@]1(C)O [Erythromycin] | - | 
8 | CC(=O)OCC1=C(C(=O)O)N2C(=O)[C@@H](NC(=O)Cc3cccs3)[C@H]2SC1 [Keflin] | - | 
9 | CN[C@H](CC(C)C)C(=O)N[C@H]1C(=O)N[C@@H](CC(N)=O)C(=O)N[C@H]2C(=O)N[C@H]3C(=O)N[C@H](C(=O)N[C@H](C(=O)O)c4cc(O)cc(O)c4-c4cc3ccc4O)[C@H](O)c3ccc(c(Cl)c3)Oc3cc2cc(c3O[C@@H]2O[C@H](CO)[C@@H](O)[C@H](O)[C@H]2O[C@H]2C[C@](C)(N)[C@H](O)[C@H](C)O2)Oc2ccc(cc2Cl)[C@H]1O [Vancomycin] | + | 
